Assay results: PubChem BioAssay (NCI)
“And” between values parts separate entries of the source, which are not always exact repeats. Equal entries are not always repeated.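 Interpolation was linear, between the two tested concentrations surrounding the appropriate level; five concentrations were tested over 48 hours in 96-well plates. GI50 = concentration required for 50% inhibition of growth. TGI marks complete inhibition of growth.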

Each compound was assayed on MDA-MB-468 breast (assay: NCI tumour cell line growth inhibition, 48 h).
`COc1ccc(C/C(=C(\C)c2ccc(OCCN3CCCC3)cc2)c2ccc(OCCN3CCCC3)cc2)cc1` gave a GI50 of 1.62 µM and a TGI of 3.14 µM.
For `COc1ccc2c(c1OC)CO[C@@H]2[C@H]1c2c(cc3c(c2OC)OCO3)CCN1S(=O)(=O)c1cn(C)cn1`, the GI50 was 0.324 µM and the TGI was 5.93 µM.
`COc1cc(OC)cc(-c2n/c(=C\c3c(O)[nH]c4ccc(OC)cc34)cc3c2=Nc2ccccc2-3)c1` gave a GI50 of 12.1 µM and a TGI of 29.8 µM.
With `CC1(C)CNc2cc(NC(=O)c3cccnc3NCc3ccncc3)ccc21` the GI50 was 12.7 µM and the TGI was 66.2 µM.
`COc1cccc(CC(C)=C(c2ccc(OCCN3CCCCC3)cc2)c2ccc(OCCN3CCCCC3)cc2)c1` showed a GI50 of 0.641 µM and a TGI of 2.71 µM.
Work on `COc1cc(/C=N/Nc2ncnc3c2cnn3-c2ccccc2)ccc1O` yielded a GI50 of 4.93 µM and a TGI greater than 25 µM.
`COc1ccc2c(c1)c(-c1nc(-c3c[nH]c4ccncc34)cs1)cn2C` was tested, and the GI50 was 0.442 µM and the TGI was 1.85 µM.
With `CCCCCCCCCCCCCCCCCCn1cc[n+](C)c1` the GI50 was 0.215 µM and the TGI was 1.64 µM.
`COc1cc(/C=C/C(=O)/C=C/c2ccc(-n3ccnc3C)cc2)ccc1O` was tested, and the GI50 was 2.06 µM and the TGI was 4.72 µM.
For `CNC(=O)c1c(NC(=O)c2ccc(C(C)(C)C)cc2)sc2c(CN(C)C)c(O)ccc12`, the GI50 was 1.67 µM and the TGI was 3.36 µM.
`CCN(CC)CCCNc1cc(OC)cc2nc3cc(Cl)ccc3nc12` showed a GI50 of 1.15 µM and a TGI of 2.67 µM.
`CCC(C)[C@H](NC(=O)Nc1cc(C(F)(F)F)cc(C(F)(F)F)c1)C(=O)N[C@@H](Cc1cn(C)cn1)C(=O)OC` (some centres undefined) was tested, and the GI50 was 0.476 µM and the TGI was 0.971 µM.
`COc1ccc2c(c1)[nH]c(=O)c1c3cccc(F)c3cn21` gave a GI50 of 0.187 µM and a TGI of 0.487 µM.
`CC1=C(SCCC(=O)OC(C[Se]C2=C(C)C(=O)c3ccccc3C2=O)C(=O)NCCCCCC(=O)OCc2ccccc2)C(=O)c2ccccc2C1=O` (centres undefined) gave a GI50 of 3 µM and a TGI of 8.54 µM.
In the case of `O=C(N/N=C\c1ccc(N(CCCl)CCCl)cc1[N+](=O)[O-])c1cccnc1`, the GI50 was greater than 100 µM and the TGI was greater than 100 µM.
`Cc1ccccc1NC(=O)c1sc2nc(C)c(C(=O)/C=C/c3ccccc3)cc2c1N` was tested, and the GI50 was 0.927 µM and the TGI was 1.82 µM.
`Nc1ccc(C2=CC(c3ccc(Cl)cc3)N3C=CSC3=N2)cc1` (centres undefined) was tested, and the GI50 was 1.9 µM and the TGI was 4.29 µM.
`O=C(Nc1ccccc1)Nc1ccc2cc3ccc(NC(=O)Nc4ccccc4)cc3nc2c1` gave a GI50 of 0.579 µM and a TGI of 1.92 µM.
`CCC(C)Nc1ccc(N)cc1` (centres undefined) showed a GI50 of 2.05 µM and a TGI of 6.51 µM.
With `NC(=O)c1cc([N+](=O)[O-])c(Cl)c([N+](=O)[O-])c1Cl` the GI50 was 0.188 µM and the TGI was 0.436 µM.
Compound `COc1cc(Nc2ncc(-c3ccccc3)o2)cc(OC)c1` has a GI50 of 7.94 µM and a TGI greater than 25 µM.
Compound `COc1ccc(CN2c3ccccc3Sc3ccccc32)c(C(F)(F)F)c1` has a GI50 of 0.275 µM and a TGI of 13.6 µM.
In the case of `CCc1ccc(CCC(=O)Nc2ncc(Cc3ccc(Cl)cc3)s2)o1`, the GI50 was 0.342 µM.
In the case of `CCN(Cc1ccccc1)C1CCN(Cc2cc(Br)ccc2O)CC1`, the GI50 was 15.1 µM and the TGI was 40.8 µM.
Compound `NCCCC[C@@H]1NC(=O)[C@H](CC(=O)O)NC(=O)CNC(=O)[C@H](CCCN=C(N)N)NC(=O)[C@@H](N)CSSC[C@@H](C(=O)O)NC(=O)[C@H](CC(=O)O)NC(=O)[C@@H]2CCCN2C(=O)CNC1=O` has a GI50 greater than 100 µM and a TGI greater than 100 µM.
In the case of `CCOC(=O)Oc1cc2c(c(OC)c1OC)-c1ccc(OC)c(=O)cc1C(NC(C)=O)CC2` (centres undefined), the GI50 was less than 0.01 µM and the TGI was greater than 100 µM.
`COC12C=C/C(=C(/C(=O)OCc3ccccn3)C(=O)CCCCCCCCC3(OC)C=C/C(=C(/C(=O)OCc4ccccn4)C(=O)CCCCCCCC1)O3)O2` was tested, and the GI50 was 0.314 µM and the TGI was 1.15 µM.
In the case of `CC(C)(C)c1ccc(Oc2ccc(N)cn2)cc1`, the GI50 was 28.3 µM and the TGI was greater than 100 µM.
`Nc1nc([Se])c2ncn(C3OC(CO)C(O)C3O)c2n1` (centres undefined) showed a GI50 of 50.2 µM and a TGI greater than 100 µM.
In the case of `COc1ncc(Nc2ncc([C@@H](C)N3CCN(S(C)(=O)=O)CC3)cc2-c2nc(C)nc(N)n2)cc1F`, the GI50 was less than 0.0148 µM and the TGI was 0.16 µM.
With `CC1=C2[C@@H](CC1)[C@]1(C)O[C@@](C(C)C)(C[C@H]1OC(=O)CO)[C@H]2OC(=O)C1CC1c1ccccc1` (some centres undefined) the GI50 was 13.2 µM and the TGI was 29.5 µM.
`COC(=O)[C@H](Cc1cnc[nH]1)NC(=O)[C@@H](NC(=O)Nc1cc(C(F)(F)F)cc(C(F)(F)F)c1)C(C)C` gave a GI50 of 11.1 µM and a TGI of 25.6 µM.
For `CNC(=O)c1cc(Oc2ccc(NC(=O)Nc3ccc(Cl)c(C(F)(F)F)c3)c(F)c2)ccn1`, the GI50 was 2.06 µM and 1.67 µM and the TGI was 5.58 µM and 7.93 µM.
For `CNC(=O)c1c(NC(=O)c2ccc(C(C)(C)C)cc2)sc2c1CCC(=O)C2`, the GI50 was 0.411 µM and the TGI was 2.07 µM.
`COCc1c(-c2cc3cc(C)cc(OC)c3s2)c2c(N)ncnn2c1CN1CCNC(=O)C1` showed a GI50 of 1.76 µM and a TGI of 7.46 µM.
Work on `CC1=C(c2ccccc2)C(O)(c2ccccc2)C(C)C1=O` (centres undefined) yielded a GI50 of 4.28 µM and a TGI of 40.3 µM.
With `CC1C(C)N(C(=O)CCl)c2ccccc2N1C(=O)CCl` (centres undefined) the GI50 was 0.296 µM and the TGI was 1.21 µM.
`Cc1cccc2nc3ccccc3c(Nc3ccc(NS(C)(=O)=O)cc3)c12` gave a GI50 of 8.53 µM and a TGI of 26.3 µM.
For `Cc1ccc(/C=N/Nc2nc(Nc3ccccc3)nc(-n3nc(C)cc3C)n2)cc1`, the GI50 was 3.63 µM and the TGI was 17.1 µM.
`CC(N)(Cc1c[nH]c2cccc(F)c12)C(=O)O` (centres undefined) gave a GI50 greater than 1000 µM and a TGI greater than 1000 µM.
